From ChEMBL document CHEMBL4513160, “CO-ADD screening of MMV (CH) - Small Polar Library”
Values after ≈ are worked out from the molar mass of the structure shown.

Experiments:
Pseudomonas aeruginosa [1] = experiment: Antibacterial activity against Pseudomonas aeruginosa PAO397 [PAO1 d(mexAB-oprM) d(mexCD-oprJ) d(mexEF-oprN) d(mexJKL) d(mexXY) d(opmH)] (CO-ADD:GN_211); MIC in CAMBH media using NBS plates, by OD(600); type: functional; settings: ASSAY_TEST Inhibition of Bacterial Growth, detection method Absorption (OD600), MEDIA CAMHB, plate type 384well, CORNING #3640, time 18 hr
Pseudomonas aeruginosa [2] = experiment: microbe, parasite or virus in culture; settings: ATCC 27853, 18 h, ASSAY_TEST Inhibition of Bacterial Growth, detection method Absorption (OD600), MEDIA CAMHB, plate type 384well, NBS, CORNING #3640
Description: Antibacterial activity against Pseudomonas aeruginosa ATCC 27853 (CO-ADD:GN_042); MIC in CAMBH media using NBS plates, by OD(600)

Acinetobacter baumannii = experiment: microbe, parasite or virus in culture; settings: ATCC 19606, 18 h, ASSAY_TEST Inhibition of Bacterial Growth, detection method Absorption (OD600), MEDIA CAMHB, plate type 384well, NBS, CORNING #3640
Description: Antibacterial activity against Acinetobacter baumannii ATCC 19606 (CO-ADD:GN_034); MIC in CAMBH media using NBS plates, by OD600

Row | SMILES | MIC (Pseudomonas aeruginosa [1]) [µM] | MIC (Pseudomonas aeruginosa [2]) [µM] | MIC (Acinetobacter baumannii) [µM]
1 | NCc1nc(-c2ccc(Cl)cc2)c[nH]1 | > 300 | > 300 | > 300
2 | c1cc2c(cc1C1=NN=C(NC3CC3)SC1)OCCO2 | > 300 | > 300 | > 300
3 | OC[C@@H]1CCCN1Cc1ccc(F)c2cccnc12 | > 300 | > 300 | > 300
4 | COc1cccc2c(N)c(C)cnc12 | > 300 | > 300 | > 300
5 | CN(C)c1ccc(-c2[nH][nH]c(=O)c2CCN)cc1 | > 300 | > 300 | > 300
6 | CC(=O)Nc1ccc(-c2ccc(C#N)nc2)cc1 | > 300 | > 300 | > 300
7 | O=C(CSCCO)Nc1ncc(-c2ccccc2)s1 | 200 (≈ 58.9 µg/mL) | > 300 | > 300
8 | Cn1c(CN)nc2cc(Cl)ccc21 | > 300 | > 300 | > 300
9 | CN(C)C(=O)Nc1cc(F)cc(F)c1 | > 300 | > 300 | > 300
10 | Cc1cc(N2CCN(CCO)CC2)nc2ccccc12 | > 300 | > 300 | > 300
11 | Cc1ocnc1C(=O)Nc1ccc2c(c1)NCCC2 | > 300 | > 300 | > 300
12 | Cn1ncnc1NC(=O)c1ccc(C#N)cc1 | 200 (≈ 45.4 µg/mL) | 200 (≈ 45.4 µg/mL) | > 300
13 | CN(C)C(=O)CNC(=O)NCc1cc(F)ccc1Br | > 300 | > 300 | > 300
14 | Cc1cc(C)c(C#N)c(N2C[C@H](C3CC3)[C@@H](N)C2)n1 | > 300 | > 300 | > 300
15 | CC(Sc1n[nH]c(-c2ccccn2)n1)C(=O)N(C)C (stereo not given) | > 300 | > 300 | > 300
16 | NCC(=O)N(Cc1cccs1)Cc1cccs1 | > 300 | > 300 | > 300
17 | CCCn1cnnc1CNC | > 300 | > 300 | > 300
18 | Cc1c(C(=O)NC2=NCCS2)oc2ccccc12 | > 300 | > 300 | > 300
19 | CCOc1nnc(CN2CCC(C(N)=O)CC2)s1 | > 300 | > 300 | > 300
20 | OCC1(O)CCCN(c2ccnc3ccc(Cl)cc23)C1 (stereo not given) | > 300 | > 300 | > 300
21 | Cc1ccc(OC(C)CN)cc1 (stereo not given) | > 300 | > 300 | > 300
22 | N#Cc1nnc(-c2ccccc2)o1 | > 300 | > 300 | > 300
23 | CC1COC2(CCN(C(=O)c3ccc(Cl)s3)CC2)O1 (stereo not given) | > 300 | > 300 | > 300
24 | NCc1cccc(-c2ccccn2)n1 | 200 (≈ 37 µg/mL) | 300 (≈ 55.6 µg/mL) | > 300
25 | Cc1cc(C(=O)Nc2ccc3c(c2)CCN3)n(C)n1 | > 300 | > 300 | > 300
